From patent publication US12616200B2, “Herbicidal combinations comprising diflufenican and mesotrione” (priority 2020, dated 2026)

Experiments:
[1] = system: AMATU WR-2012-017-08 (resistant against HPPD-inhibitor herbicides and atrazine (PSII-inhibitor)); experiment: Greenhouse pre-emergence herbicidal activity, AMATU WR-2012-017-08; type: in vivo, Amaranthus tuberculatus; settings: 3 weeks, mean of 6
[2] = system: AMATU WR-2013-044 (resistant against HPPD-inhibitor herbicides and atrazine (PSII-inhibitor)); experiment: Greenhouse pre-emergence herbicidal activity, AMATU WR-2013-044; type: in vivo, Amaranthus tuberculatus; settings: 3 weeks, mean of 6

Structure (SMILES) | Activity [%] against AMATU WR-2012-017-08 ([1]; rate 75 g/ha) [%] | Activity [%] against AMATU WR-2012-017-08 ([1]; rate 150 g/ha) [%] | Activity [%] against AMATU WR-2013-044 ([2]; rate 75 g/ha) [%] | Activity [%] against AMATU WR-2013-044 ([2]; rate 150 g/ha) [%] | Activity [%] against AMATU WR-2012-017-08 ([1]; rate 52 g/ha) [%] | Activity [%] against AMATU WR-2012-017-08 ([1]; rate 105 g/ha) [%] | Activity [%] against AMATU WR-2013-044 ([2]; rate 52 g/ha) [%] | Activity [%] against AMATU WR-2013-044 ([2]; rate 105 g/ha) [%]
O=C(Nc1ccc(F)cc1F)c1cccnc1Oc1cccc(C(F)(F)F)c1 [DFF, 2′,4′-difluoro-2-[3-(trifluoromethyl)phenoxy]pyridine-3-carboxanilide] | 66.7 | 86.3 | 69.2 | 80.8 | – | – | – | –
CS(=O)(=O)c1ccc(C(=O)C2C(=O)CCCC2=O)c([N+](=O)[O-])c1 [MST, 2-[4-(methylsulfonyl)-2-nitrobenzoyl]cyclohexane-1,3-dione] | – | – | – | – | 59.2 | 84.2 | 70.0 | 76.7
